# Key:
# [1] = test system: phosphorylation of ERK (Thr202/Tyr204); assay: ERK phosphorylation inhibitory activity, cell ELISA, PA-TU-8902; format: cell-based; details: Homo sapiens, PaTu 8902; PA-TU-8902 cells, 24 hours, 100% = 300 nM trametinib; read-out: IC50 (ERK phosphorylation inhibition)
# Method: Test Example 2: Evaluation of ERK Phosphorylation Inhibitory Activity on Human KRAS G12V Mutant-Positive Pancreatic Cancer Line PA-TU-8902
# The ERK phosphorylation inhibitory activities of subject compounds were evaluated by measuring phosphorylation of the 202th threonine (Thr202) and the 204th tyrosine (Tyr204) of ERK located downstream of the KRAS signal by cell ELISA.
# PA-TU-8902 cells were seeded at 36 µL/well on a 384-well plate (from Greiner bio-one) to give 5.0×10^3 cells per well. The cell culture conditions were the same conditions as in Test Example 1-1.
# The next day, the subject compounds (9 points having final concentrations in the range of 3 μM to 0.3 nM), trametinib (MEK inhibitor) of a final concentration of 300 nM as a positive control and DMSO, which was the solvent for the subject compounds, as a negative control were diluted 100-fold with a fresh medium and were each added at 4 μL per well, followed by culturing for 24 hours. After culturing, a 30% glyoxal solution (40% glyoxal [from Nacalai Tesque] was diluted with PBS) was quickly added at 30 μL per well, and the plate was allowed to stand for an hour and 30 minutes at room temperature to thus immobilize the cells. Then, the plate was centrifuged (110×g, seven seconds, hereinafter centrifugation was performed under the same conditions unless otherwise specified) to remove the supernatant, and 0.1% Triton X-100-containing PBS was added at 20 μL per well. After allowing the plate to stand for 10 minutes at room temperature, the supernatant was removed by centrifugation, and the same operation was further repeated. Next, 0.5% SDS-containing PBS was added at 20 μL per well. The plate was allowed to stand at room temperature for 30 minutes and was then centrifuged to remove the supernatant. Subsequently, a blocking solution (Intercept Blocking Buffer) was added at 20 μL per well, and the plate was allowed to stand for an hour at room temperature. The supernatant was removed by centrifugation, and an ERK (Thr202/Tyr204) phosphorylation antibody (Phospho-p44/42 MAPK (Erk 1/2) (Thr202/Tyr204) (D13.14.4E) XP Rabbit mAb; from Cell Signaling Technology) diluted 2,500-fold with the blocking solution was added at 15 μL per well as a primary antibody. The plate was allowed to stand at 4° C. overnight.
# The next day, the plate was centrifuged to remove the supernatant, and 0.05% Tween-20-containing PBS (from Thermo Scientific; 20×PBS Tween-20 was diluted 20-fold with ion exchange water and used) was added at 50 μL per well. The supernatant was removed by centrifugation to thus wash each well. The washing was performed three times in total. After washing, an anti-rabbit IgG antibody diluted 1,000-fold with the blocking solution was added at 15 μL per well as a secondary antibody, and the plate was allowed to stand for an hour at room temperature. The plate was centrifuged to remove the supernatant, and each well was washed three times with 0.05% Tween-20-containing PBS in the same manner as after the primary antibody reaction. Centrifugation after the third washing was performed at 171×g for 17 seconds. After removing the supernatant, the plate was dried as it was with air at room temperature for three hours or more, and the 800-nm fluorescent signals were measured with Aerius.
# With the signaling value at the time of addition of DMSO taken as 0% inhibition and with the signaling value at the time of addition of 300 nM trametinib taken as 100% inhibition, the 50% inhibition values (IC50) were calculated by Sigmoid-Emax model nonlinear regression analysis.
# RAS G12D = target: T1, RAS G12D (Homo sapiens, UniProt P01116, G12D); assay: RAS G12D degradation activity, Cell ELISA, AsPC-1; format: cell-based; details: AsPC-1 cells, 24 hours; read-out: DC50 (RAS G12D 50% degradation value)
# T1 construct: host or cells: AsPC-1 human pancreatic cancer cells
# T1 sequence (P01116 1-188 isoform P01116-2 G12D): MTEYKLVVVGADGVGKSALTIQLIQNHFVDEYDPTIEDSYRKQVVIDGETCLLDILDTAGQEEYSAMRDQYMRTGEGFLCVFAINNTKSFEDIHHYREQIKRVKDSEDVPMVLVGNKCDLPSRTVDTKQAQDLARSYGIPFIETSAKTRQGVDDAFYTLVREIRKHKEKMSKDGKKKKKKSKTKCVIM
# Method: Test Example 1-2: Evaluation of RAS G12D Degradation Activity on Human KRAS G12D Mutant-Positive Pancreatic Cancer Line AsPC-1
# The RAS G12D degradation activities of subject compounds were evaluated in the same manner as in Test Example 1-1 by measuring the expression levels of RAS G12D by a Cell ELISA method.
# AsPC-1 cells (ATCC, CRL-1682) were seeded at 36 μL per well on a 384-well plate to give 2.0×10^4 cells per well. As for the cell culture conditions, RPMI-1640 medium (from Sigma-Aldrich) containing 10% fetal bovine serum was used in the presence of 5% CO2 at 37° C.
# The next day, the subject compounds (10 points having final concentrations in the range of 3 μM to 0.1 nM) and DMSO, which was the solvent for the subject compounds, as a negative control were diluted 100-fold with a fresh medium and were each added at 4 μL per well, followed by culturing for 24 hours.
# The next day, the procedures from the immobilization of the cells to before the addition of the blocking solution were performed by the same methods as in Test Example 1-1. A blocking solution (Intercept Blocking Buffer; from LI-COR Biosciences) was added at 20 μL per well. After allowing the plate to stand for 30 minutes at room temperature, the supernatant was removed by centrifugation. A solution obtained by diluting an anti-R-actin antibody (1,000-fold dilution) with the blocking solution was added to the wells of the positive control as a primary antibody, and a solution obtained by diluting an anti-Ras (G12D Mutant Specific) antibody (Ras (G12D Mutant Specific) (D8H7) Rabbit mAb; from Cell Signaling Technology; 1,000-fold dilution) and an anti-3-actin antibody (1,000-fold dilution) with the blocking solution was added to the other wells as primary antibodies, each at 15 μL per well. The plate was allowed to stand overnight at 4° C.
# The next day, the supernatant was removed by centrifugation, and the plate was washed with PBS. The supernatant was removed by centrifugation, and a solution obtained by diluting an anti-rabbit IgG antibody and an anti-mouse IgG antibody 1,000-fold with the blocking solution was added at 15 μL per well as secondary antibodies. After allowing the plate to stand at room temperature for an hour, the supernatant was removed by centrifugation, and the plate was washed with PBS. After removing the supernatant, the plate was dried as it was with air at room temperature for two hours or more, and the 700-nm and 800-nm fluorescent signals were measured with Aerius.
# With the RAS G12D signaling value at the time of addition of DMSO corrected with the signaling value of β-actin taken as 0% and with the RAS G12D signaling value under the conditions of staining with the anti-β-actin antibody alone taken as 100%, the RAS G12D degradation rates were calculated. The 50% degradation values (DC50) were calculated by Sigmoid-Emax model nonlinear regression analysis.
Structure (SMILES),IC50 [1],DC50 (RAS G12D)
"CO[C@@H](C)COc1nc(NC2CN(C(=O)O[C@H]3C[C@@H](N(C)C)C3)C2)c2cc(C3CC3)c(-c3c(C)c(F)cc4[nH]ncc34)c(OCc3ccc(-c4cn([C@H](C(=O)N5C[C@H](O)C[C@H]5C(=O)N[C@@H](CO)c5ccc(-c6ocnc6C)cc5)C(C)C)nn4)cc3)c2n1 (atropisomer, axis not shown; (M)) [Example 1, (1s,3R)-3-(dimethylamino)cyclobutyl 3-({(7M)-6-cyclopropyl-7-(6-fluoro-5-methyl-1H-indazol-4-yl)-8-{[4-(1-{(2S)-1-[(2S,4R)-4-hydroxy-2-({(1R)-2-hydroxy-1-[4-(4-methyl-1,3-oxazol-5-yl)phenyl]ethyl}carbamoyl)pyrrolidin-1-yl]-3-methyl-1-oxobutan-2-yl}-1H-1,2,3-triazol-4-yl)phenyl]methoxy}-2-[(2S)-2-methoxypropoxy]quinazolin-4-yl}amino)azetidine-1-carboxylate]",19 nM,5 nM
"CO[C@@H](C)COc1nc(N[C@H]2C[C@H](OCCN(C)C)C2)c2cc(C3CC3)c(-c3c(C)c(F)cc4[nH]ncc34)c(OCc3ccc(-c4cn([C@H](C(=O)N5C[C@H](O)C[C@H]5C(=O)N[C@@H](CO)c5ccc(-c6scnc6C)cc5)C(C)C)nn4)cc3)c2n1 (atropisomer, axis not shown) [Example 23]",107 nM,1 nM
"CO[C@@H](C)COc1nc(N2CCOCC2)c2cc(C3CC3)c(-c3c(C)c(F)cc4[nH]ncc34)c(OCc3ccc(-c4cn([C@H](C(=O)N5C[C@H](O)C[C@H]5C(=O)N[C@@H](CO)c5ccc(-c6scnc6C)cc5)C(C)C)nn4)cc3)c2n1 (atropisomer, axis not shown) [Example 21]",19 nM,8 nM
Cc1ncsc1-c1ccc([C@H](CO)NC(=O)[C@@H]2C[C@@H](O)CN2C(=O)[C@H](C(C)C)n2cc(-c3ccc(COc4c(-c5c(C)c(F)cc6[nH]ncc56)c(C5CC5)cc5c(NCc6cccnc6)nc(OC6CCOCC6)nc45)cc3)nn2)cc1 [Example 29],15 nM,21 nM
"CO[C@@H](C)COc1cc(OC2CN(C(=O)N3CC(CN(C)C)C3)C2)c2cc(C3CC3)c(-c3c(C)c(F)cc4[nH]ncc34)c(OCc3ccc(-c4cn([C@H](C(=O)N5C[C@H](O)C[C@H]5C(=O)N[C@@H](CO)c5ccc(-c6scnc6C)cc5)C(C)C)nn4)cc3)c2n1 (atropisomer, axis not shown; (M)) [Example 14, (4R)-1-[(2S)-2-(4-{4-[({(7M)-6-cyclopropyl-4-[(1-{3-[(dimethylamino)methyl]azetidine-1-carbonyl}azetidin-3-yl)oxy]-7-(6-fluoro-5-methyl-1H-indazol-4-yl)-2-[(2S)-2-methoxypropoxy]quinolin-8-yl}oxy)methyl]phenyl}-1H-1,2,3-triazol-1-yl)-3-methylbutanoyl]-4-hydroxy-N-{(1R)-2-hydroxy-1-[4-(4-methyl-1,3-thiazol-5-yl)phenyl]ethyl}-L-prolinamide]",10 nM,2 nM
"CO[C@@H](C)COc1cc(OC2CN(C(=O)O[C@H]3C[C@@H](N(C)C)C3)C2)c2cc(C3CC3)c(-c3c(C)c(F)cc4[nH]ncc34)c(OCc3ccc(-c4cn([C@H](C(=O)N5C[C@H](O)C[C@H]5C(=O)N[C@@H](CO)c5ccc(-n6cncn6)cc5)C(C)C)nn4)cc3)c2n1 (atropisomer, axis not shown; (M)) [Example 13, (1s,3R)-3-(dimethylamino)cyclobutyl 3-({(7M)-6-cyclopropyl-7-(6-fluoro-5-methyl-1H-indazol-4-yl)-8-{[4-(1-{(2S)-1-[(2S,4R)-4-hydroxy-2-({(1R)-2-hydroxy-1-[4-(1H-1,2,4-triazol-1-yl)phenyl]ethyl}carbamoyl)pyrrolidin-1-yl]-3-methyl-1-oxobutan-2-yl}-1H-1,2,3-triazol-4-yl)phenyl]methoxy}-2-[(2S)-2-methoxypropoxy]quinolin-4-yl}oxy)azetidine-1-carboxylate]",9 nM,6 nM
"CO[C@@H](C)COc1nc(N(C)[C@H]2CCN(C(=O)NCCN(C)C)C2)c2cc(C3CC3)c(-c3c(C)c(F)cc4[nH]ncc34)c(OCc3ccc(-c4cn([C@H](C(=O)N5C[C@H](O)C[C@H]5C(=O)N[C@@H](CO)c5ccc(-c6scnc6C)cc5)C(C)C)nn4)cc3)c2n1 (atropisomer, axis not shown) [Example 19]",31 nM,4 nM
"CO[C@@H](C)COc1cc(OC2CN(C(=O)N3CC(CN(C)C)C3)C2)c2cc(C3CC3)c(-c3c(C)c(F)cc4[nH]ncc34)c(OCc3ccc(-c4cn([C@H](C(=O)N5C[C@H](O)C[C@H]5C(=O)N[C@@H](CO)c5ccc(-n6cncn6)cc5)C(C)C)nn4)cc3)c2n1 (atropisomer, axis not shown; (M)) [Example 5, (4R)-1-[(2S)-2-(4-{4-[({(7M)-6-cyclopropyl-4-[(1-{3-[(dimethylamino)methyl]azetidine-1-carbonyl}azetidin-3-yl)oxy]-7-(6-fluoro-5-methyl-1H-indazol-4-yl)-2-[(2S)-2-methoxypropoxy]quinolin-8-yl}oxy)methyl]phenyl}-1H-1,2,3-triazol-1-yl)-3-methylbutanoyl]-4-hydroxy-N-{(1R)-2-hydroxy-1-[4-(1H-1,2,4-triazol-1-yl)phenyl]ethyl}-L-prolinamide]",8 nM,6 nM

# From patent US20260049072A1, “HETEROCYCLIC COMPOUND FOR INDUCING DEGRADATION OF MUTANT KRAS PROTEIN” (Astellas Pharma Inc., priority 2022, published 2026)
